According to patent US12098159B2, “Solid forms of substituted benzoxaborole and compositions thereof” (5Metis, Inc., priority 2018, dated 2024):

Assays:
Assay type in all cases: physicochemical
[1] = VT-XRPD and heating experiments: dehydration of (I) to (II) and conversion back
Experimental: The compound of formula (II) can be prepared by heating the compound of formula (I) under vacuum or by exposing the compound of formula (I) to dehydrating conditions.
To confirm this hypothesis, variable-temperature XRPD (VT-XRPD) and heating experiments were performed. […] The ^1H NMR results in FIG. 22B show no difference before and after heating, likely because the dehydrated product converted back to (I) after being exposed to residual water in DMSO-d6. TGA was also performed by heating (I) to 160° C. and cooling to room temperature, followed by re-heating to 160° C. after placed being placed under ambient conditions overnight. […] All the results were consistent with the hypothesis that dehydration and hydration reactions would occur during heating and exposure to air, respectively.

[2] = TGA weight loss (ramp, cycle and isothermal TGA)
Experimental: TGA data were collected using a TA Q5000/5500 TGA from TA Instruments. DSC was performed using a TA Q2000/2500 DSC from TA Instruments.
(§1) This difference was postulated to be caused by preferred orientation, since the morphology of Type A starting material was rod-like. A two-stage weight loss of 0.5% up to 100° C. and 10.0% from 100° C. to 160° C. was observed on the TGA curve. […] (onset temperature). The DVS isotherm plot of Type A was collected at 25° C. between 0 and 95% RH.
The results of VT-XRPD and heating experiment preliminarily confirmed the dehydration reaction. However, the theoretical weight loss of dehydration was calculated to be 5.4%, which was not consistent with the observed TGA weight loss of 10.0%. To further explain the difference on weight loss, the TGA data of Type A were re-visited. The results in FIG. 23B indicate that there might be 2 events involved in the TGA weight loss from 100° C. to 160° C., one of which is the dehydration of (I) (the theoretical weight loss of dehydration was close to the TGA weight loss up to 128° C.), while the other may be the complete decomposition or sublimation of the dehydrated product (if it's partial decomposition, the sample after heated should not convert back to (I) upon exposure to air).
Cycle TGA was conducted by heating Type A to 160° C. and cooling to 50° C. (with N2 purge, without exposure to air), followed by re-heating to 160° C. […] Isothermal TGA was conducted by heating Type A to 160° C. and isothermal at 160° C. for 0.5 hr. A weight loss of >20% was observed during the isothermal stage FIG. 24B, which was postulated to be decomposition/sublimation.

[3] = Dynamic vapor sorption (DVS) of Type A
Excerpt: After preparation by the method described in Example 1, the starting material was characterized by X-ray powder diffraction (XRPD), thermo gravimetric analysis (TGA), differential scanning calorimetry (DSC), dynamic vapor sorption (DVS), high performance liquid chromatography (HPLC), and ^1H solution nuclear magnetic resonance (^1H NMR).
as §1

| Structure (SMILES) | XRPD after heating experiment ([1]; heated to 160° C. and cooled to RT, exposed to air) | TGA weight loss ([2]; from 100° C. to 160° C.) | cycle TGA weight loss on the re-heating curve ([2]; heated to 160° C., cooled to 50° C. with N2 purge, re-heated, up to 150° C.) | isothermal TGA weight loss ([2]; isothermal at 160° C. for 0.5 hr) | Wt Loss on TGA (%, up to 100° C.) ([2]; up to 100° C.) | water up-take (DVS) ([3]; 25° C./80% RH) | form change after the DVS test (XRPD) ([3]; DVS at 25° C. between 0 and 95% RH) | XRPD pattern of dehydrated product after exposure to air ([1]; after heating to 140° C. with N2 purge, exposed in air for 3 hrs) | behaviour on exposure to water ([1]; exposed to water) |
| --- | --- | --- | --- | --- | --- | --- | --- | --- | --- |
| OB1OCc2cc(Cl)ccc21 [(I), 5-chlorobenzo[c][1,2]oxaborol-1(3H)-ol] | partial conversion to the dehydrated product (II) | 10.0% | 1.3% | > 20% | 0.5% | 0.1% | no form change was observed |  |  |
| Clc1ccc2c(c1)COB2OB1OCc2cc(Cl)ccc21 [(II), 1,1′-oxybis(5-chloro-1,3-dihydrobenzo[c][1,2]oxaborole)] |  |  |  |  |  |  |  | converted back to Type A | reverts to the compound of formula (I) |
